Values belong to the compound of their own block, whether it stands above or below them.
Experiments:
[1] = target: Phosphatidylinositol 4-kinase beta (Homo sapiens, UniProt Q9UBF8); experiment: Selectivity interaction (KinomeScan (DiscoverX)) EUB0000655a PI4KB; details: at 10 µM
[2] = target: Phosphatidylinositol 4,5-bisphosphate 3-kinase catalytic subunit gamma isoform (Homo sapiens) (UniProt P48736); experiment: Selectivity interaction (KinomeScan (DiscoverX)) EUB0000655a PIK3CG; details: at 10 µM
Phosphatidylinositol 4,5-bisphosphate 3-kinase catalytic subunit gamma isoform (Homo sapiens), sequence (P48736 whole entry, looked up, canonical isoform): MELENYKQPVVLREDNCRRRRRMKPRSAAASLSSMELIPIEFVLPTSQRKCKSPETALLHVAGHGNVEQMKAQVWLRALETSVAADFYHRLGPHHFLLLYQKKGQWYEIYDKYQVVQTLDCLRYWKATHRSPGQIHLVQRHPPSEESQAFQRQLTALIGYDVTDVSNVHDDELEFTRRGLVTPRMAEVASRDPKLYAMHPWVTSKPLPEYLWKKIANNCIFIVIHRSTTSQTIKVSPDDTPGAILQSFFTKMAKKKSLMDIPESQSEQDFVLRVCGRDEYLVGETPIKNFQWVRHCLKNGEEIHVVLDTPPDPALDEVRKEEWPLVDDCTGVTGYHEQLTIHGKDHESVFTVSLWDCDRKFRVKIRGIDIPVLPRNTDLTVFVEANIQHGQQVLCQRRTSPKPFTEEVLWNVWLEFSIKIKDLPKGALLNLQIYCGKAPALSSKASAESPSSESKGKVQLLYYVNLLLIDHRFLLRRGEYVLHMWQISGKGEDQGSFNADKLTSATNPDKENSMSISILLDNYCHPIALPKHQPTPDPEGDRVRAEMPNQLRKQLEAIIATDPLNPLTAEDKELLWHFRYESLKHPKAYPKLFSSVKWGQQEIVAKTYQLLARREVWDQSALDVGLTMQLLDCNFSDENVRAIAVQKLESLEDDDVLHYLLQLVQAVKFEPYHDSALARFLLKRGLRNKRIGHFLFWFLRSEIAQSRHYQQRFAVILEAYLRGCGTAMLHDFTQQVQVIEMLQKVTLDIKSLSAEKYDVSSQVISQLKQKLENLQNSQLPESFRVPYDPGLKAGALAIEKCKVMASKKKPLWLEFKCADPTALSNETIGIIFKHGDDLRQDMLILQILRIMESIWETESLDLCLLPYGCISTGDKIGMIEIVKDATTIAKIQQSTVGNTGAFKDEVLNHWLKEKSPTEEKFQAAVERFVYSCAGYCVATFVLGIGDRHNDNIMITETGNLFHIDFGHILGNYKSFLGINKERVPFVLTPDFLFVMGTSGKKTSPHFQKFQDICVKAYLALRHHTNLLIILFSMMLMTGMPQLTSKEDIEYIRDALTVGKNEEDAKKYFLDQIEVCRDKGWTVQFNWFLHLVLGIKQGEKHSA

[3] = target: Mitogen-activated protein kinase kinase kinase 4 (Homo sapiens) (UniProt Q9Y6R4); experiment: Selectivity interaction (KinomeScan (DiscoverX)) EUB0000655a MAP3K4; details: at 10 µM
[4] = target: Serine/threonine-protein kinase MRCK gamma (Homo sapiens) (UniProt Q6DT37); experiment: Selectivity interaction (KinomeScan (DiscoverX)) EUB0001079a CDC42BPG; details: at 1 µM
Serine/threonine-protein kinase MRCK gamma (Homo sapiens), sequence (Q6DT37 whole entry): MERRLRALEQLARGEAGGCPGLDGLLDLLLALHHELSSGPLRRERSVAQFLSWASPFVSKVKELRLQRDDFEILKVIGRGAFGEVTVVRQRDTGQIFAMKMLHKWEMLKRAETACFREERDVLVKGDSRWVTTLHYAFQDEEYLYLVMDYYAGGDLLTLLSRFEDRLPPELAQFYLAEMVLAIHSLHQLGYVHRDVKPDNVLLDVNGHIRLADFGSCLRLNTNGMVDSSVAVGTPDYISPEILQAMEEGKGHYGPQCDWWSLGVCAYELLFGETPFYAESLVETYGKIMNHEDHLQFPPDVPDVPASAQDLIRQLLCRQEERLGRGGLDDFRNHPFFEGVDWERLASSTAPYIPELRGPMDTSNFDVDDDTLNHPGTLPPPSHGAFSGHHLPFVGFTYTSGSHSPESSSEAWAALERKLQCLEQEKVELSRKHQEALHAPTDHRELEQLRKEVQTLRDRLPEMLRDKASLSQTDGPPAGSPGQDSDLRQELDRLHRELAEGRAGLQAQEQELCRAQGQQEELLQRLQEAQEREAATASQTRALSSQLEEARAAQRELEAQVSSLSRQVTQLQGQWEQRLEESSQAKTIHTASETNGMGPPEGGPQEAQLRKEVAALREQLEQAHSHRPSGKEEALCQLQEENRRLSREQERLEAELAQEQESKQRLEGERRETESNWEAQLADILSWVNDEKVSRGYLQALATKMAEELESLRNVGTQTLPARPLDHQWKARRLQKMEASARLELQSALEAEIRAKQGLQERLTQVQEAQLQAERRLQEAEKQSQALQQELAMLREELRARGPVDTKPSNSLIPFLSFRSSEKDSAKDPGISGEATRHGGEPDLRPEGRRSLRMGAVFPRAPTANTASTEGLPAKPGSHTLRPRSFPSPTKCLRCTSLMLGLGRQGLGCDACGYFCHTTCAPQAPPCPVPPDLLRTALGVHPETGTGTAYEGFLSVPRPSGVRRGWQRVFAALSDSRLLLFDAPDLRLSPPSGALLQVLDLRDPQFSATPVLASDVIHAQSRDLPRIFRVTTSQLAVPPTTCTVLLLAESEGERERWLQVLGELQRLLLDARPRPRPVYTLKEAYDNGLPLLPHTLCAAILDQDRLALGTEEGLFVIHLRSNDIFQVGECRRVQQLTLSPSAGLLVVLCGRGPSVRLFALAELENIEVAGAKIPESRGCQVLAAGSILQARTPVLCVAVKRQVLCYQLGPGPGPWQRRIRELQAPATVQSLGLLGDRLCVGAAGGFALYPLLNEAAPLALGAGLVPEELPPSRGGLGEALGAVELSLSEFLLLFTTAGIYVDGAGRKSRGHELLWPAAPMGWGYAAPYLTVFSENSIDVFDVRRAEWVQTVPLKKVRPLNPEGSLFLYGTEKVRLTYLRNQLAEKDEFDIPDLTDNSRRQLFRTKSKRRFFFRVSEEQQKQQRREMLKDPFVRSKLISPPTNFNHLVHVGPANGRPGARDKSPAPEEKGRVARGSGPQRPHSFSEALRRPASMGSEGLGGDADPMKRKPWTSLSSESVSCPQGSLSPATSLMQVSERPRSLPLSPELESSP

[5] = target: T1, Mitogen-activated protein kinase kinase kinase 12 (Homo sapiens) (UniProt Q12852); experiment: Selectivity interaction (KinomeScan (DiscoverX)) EUB0000607a MAP3K12; details: at 10 µM
T1 sequence (whole entry): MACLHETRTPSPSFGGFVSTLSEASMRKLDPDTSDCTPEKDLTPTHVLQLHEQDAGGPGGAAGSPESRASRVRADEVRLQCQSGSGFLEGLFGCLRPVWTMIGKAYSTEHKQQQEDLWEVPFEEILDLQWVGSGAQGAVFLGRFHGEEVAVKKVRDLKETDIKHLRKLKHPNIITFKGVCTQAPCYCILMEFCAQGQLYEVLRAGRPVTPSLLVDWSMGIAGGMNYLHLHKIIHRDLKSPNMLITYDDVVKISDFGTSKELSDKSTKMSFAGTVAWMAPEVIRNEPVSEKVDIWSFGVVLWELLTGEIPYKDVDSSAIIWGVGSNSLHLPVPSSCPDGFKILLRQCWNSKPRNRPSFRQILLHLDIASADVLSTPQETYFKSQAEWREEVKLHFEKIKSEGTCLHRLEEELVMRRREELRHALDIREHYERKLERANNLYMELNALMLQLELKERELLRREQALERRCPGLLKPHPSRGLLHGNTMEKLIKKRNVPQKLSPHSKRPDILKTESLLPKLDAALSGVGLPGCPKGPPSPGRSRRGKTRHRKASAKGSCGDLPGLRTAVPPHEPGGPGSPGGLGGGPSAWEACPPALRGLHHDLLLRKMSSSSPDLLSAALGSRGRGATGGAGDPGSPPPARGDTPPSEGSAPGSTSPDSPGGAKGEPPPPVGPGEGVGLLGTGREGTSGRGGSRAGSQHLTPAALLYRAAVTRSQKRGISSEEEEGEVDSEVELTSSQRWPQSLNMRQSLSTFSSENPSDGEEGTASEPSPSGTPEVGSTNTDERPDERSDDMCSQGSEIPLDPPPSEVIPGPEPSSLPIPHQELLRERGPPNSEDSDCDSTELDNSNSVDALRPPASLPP

[6] = target: Serine/threonine-protein kinase 24 (Homo sapiens) (UniProt Q9Y6E0); experiment: Selectivity interaction (Upstate Kinase Profiler service (Millipore)) EUB0000056c STK24; details: at 1 µM
Serine/threonine-protein kinase 24 (Homo sapiens), sequence (Q9Y6E0 whole entry, looked up): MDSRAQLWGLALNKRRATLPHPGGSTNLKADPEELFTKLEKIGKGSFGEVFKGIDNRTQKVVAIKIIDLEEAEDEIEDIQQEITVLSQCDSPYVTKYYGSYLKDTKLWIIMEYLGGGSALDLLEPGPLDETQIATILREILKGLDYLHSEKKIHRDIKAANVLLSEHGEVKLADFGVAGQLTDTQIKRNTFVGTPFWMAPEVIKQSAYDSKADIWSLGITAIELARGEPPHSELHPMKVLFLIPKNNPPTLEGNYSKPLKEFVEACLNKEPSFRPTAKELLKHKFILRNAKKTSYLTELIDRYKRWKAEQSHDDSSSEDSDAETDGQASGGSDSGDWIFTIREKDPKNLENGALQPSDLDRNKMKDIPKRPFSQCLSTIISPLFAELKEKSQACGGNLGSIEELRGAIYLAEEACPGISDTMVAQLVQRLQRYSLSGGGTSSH

[7] = target: T2, Cyclin-dependent kinase-like 2 (Homo sapiens) (UniProt Q92772); experiment: Selectivity interaction (KinomeScan (DiscoverX)) EUB0000229b CDKL2; details: at 10 µM
T2 sequence (whole entry): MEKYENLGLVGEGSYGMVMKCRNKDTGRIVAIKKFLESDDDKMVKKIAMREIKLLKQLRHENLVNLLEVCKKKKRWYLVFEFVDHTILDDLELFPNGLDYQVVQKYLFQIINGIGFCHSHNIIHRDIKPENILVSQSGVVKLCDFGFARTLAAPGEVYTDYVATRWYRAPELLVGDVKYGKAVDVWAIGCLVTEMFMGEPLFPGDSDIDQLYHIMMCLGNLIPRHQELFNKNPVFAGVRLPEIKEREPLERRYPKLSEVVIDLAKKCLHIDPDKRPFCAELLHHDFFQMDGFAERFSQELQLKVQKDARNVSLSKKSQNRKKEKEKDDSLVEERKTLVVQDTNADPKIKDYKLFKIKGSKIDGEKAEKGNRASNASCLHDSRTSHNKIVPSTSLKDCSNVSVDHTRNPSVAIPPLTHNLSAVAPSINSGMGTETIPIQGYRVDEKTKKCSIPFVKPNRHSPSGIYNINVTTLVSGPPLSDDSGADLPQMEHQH

[8] = target: Serine/threonine-protein kinase WNK1 (Homo sapiens) (UniProt Q9H4A3); experiment: Selectivity interaction (KinomeScan (DiscoverX)) EUB0000229b WNK1; details: at 10 µM
[9] = target: T3, Serine/threonine-protein kinase DCLK2 (Homo sapiens) (UniProt Q8N568); experiment: Selectivity interaction (KinomeScan (DiscoverX)) EUB0000092b DCLK2; details: at 10 µM
T3 sequence (whole entry): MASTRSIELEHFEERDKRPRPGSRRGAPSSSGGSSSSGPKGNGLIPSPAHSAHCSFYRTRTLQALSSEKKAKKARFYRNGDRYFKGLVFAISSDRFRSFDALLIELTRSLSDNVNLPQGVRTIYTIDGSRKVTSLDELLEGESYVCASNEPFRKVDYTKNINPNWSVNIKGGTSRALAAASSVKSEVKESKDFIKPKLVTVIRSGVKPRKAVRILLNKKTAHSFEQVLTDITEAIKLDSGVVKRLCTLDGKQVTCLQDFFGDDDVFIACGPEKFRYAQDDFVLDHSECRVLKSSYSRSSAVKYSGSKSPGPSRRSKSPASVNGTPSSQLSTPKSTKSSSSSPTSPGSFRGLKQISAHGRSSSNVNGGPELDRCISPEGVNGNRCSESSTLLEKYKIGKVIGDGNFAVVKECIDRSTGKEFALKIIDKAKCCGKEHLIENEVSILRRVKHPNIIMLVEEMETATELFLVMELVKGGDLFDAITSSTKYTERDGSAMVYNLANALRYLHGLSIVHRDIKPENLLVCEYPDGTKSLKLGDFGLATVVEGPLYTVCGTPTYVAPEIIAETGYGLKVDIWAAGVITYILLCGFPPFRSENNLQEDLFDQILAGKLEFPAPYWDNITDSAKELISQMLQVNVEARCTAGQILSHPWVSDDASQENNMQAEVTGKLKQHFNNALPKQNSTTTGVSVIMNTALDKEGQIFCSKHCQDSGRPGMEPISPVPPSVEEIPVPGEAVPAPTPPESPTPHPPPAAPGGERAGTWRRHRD

Phosphatidylinositol 4-kinase beta, sequence (Q9UBF8 2-816 limits assumed): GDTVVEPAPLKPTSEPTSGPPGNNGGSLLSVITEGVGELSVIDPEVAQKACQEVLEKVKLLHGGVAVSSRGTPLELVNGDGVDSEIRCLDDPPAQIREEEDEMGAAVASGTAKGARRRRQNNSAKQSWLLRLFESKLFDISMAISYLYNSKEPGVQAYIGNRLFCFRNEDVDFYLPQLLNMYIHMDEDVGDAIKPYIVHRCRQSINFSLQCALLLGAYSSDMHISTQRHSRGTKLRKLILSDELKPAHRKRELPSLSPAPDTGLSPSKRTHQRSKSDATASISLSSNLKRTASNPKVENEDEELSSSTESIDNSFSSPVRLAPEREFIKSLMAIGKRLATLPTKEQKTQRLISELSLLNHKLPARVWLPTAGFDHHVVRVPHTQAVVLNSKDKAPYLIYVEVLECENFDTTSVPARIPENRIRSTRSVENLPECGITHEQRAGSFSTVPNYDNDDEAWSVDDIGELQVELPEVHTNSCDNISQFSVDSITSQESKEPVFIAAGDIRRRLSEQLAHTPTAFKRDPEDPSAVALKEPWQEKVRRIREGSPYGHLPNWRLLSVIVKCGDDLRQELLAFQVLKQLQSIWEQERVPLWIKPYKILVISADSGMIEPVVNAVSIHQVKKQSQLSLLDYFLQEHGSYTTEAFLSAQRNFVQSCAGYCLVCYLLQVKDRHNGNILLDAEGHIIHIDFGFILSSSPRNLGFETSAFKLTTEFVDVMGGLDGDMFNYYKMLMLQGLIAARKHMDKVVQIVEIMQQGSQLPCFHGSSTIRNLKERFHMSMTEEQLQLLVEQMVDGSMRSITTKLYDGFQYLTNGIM

Compound: CN(C)CCOc1ccc(-c2nc(-c3ccncc3)c(-c3ccc4c(c3)CC/C4=N\O)[nH]2)cc1
- % of control [1]: 88%
- % of control [2]: 84%
- % of control [3]: 83%

Compound: Nc1cnc(N2CCc3cc(S(=O)(=O)Nc4c(F)cc(Cl)cc4F)cc(N4CCCC4=O)c32)nc1 [TP-020n]
- % of control [4]: 100%

Compound: CNC(=O)Nc1ccc(-c2nc(N3CC4CCC(C3)O4)c3cnn(C4CCC5(CC4)OCCO5)c3n2)cc1
- % of control [5]: 93%

- % of inhibition [6]: 33%
Compound: Cc1ccc(-c2ccc3c(ccc4sc5c(c43)NC[C@@H](C)NC5=O)n2)cn1

Compound: COc1cc(N(C)c2ccnc3ccc(C(F)(F)F)cc23)cc(OC)c1OC
- % binding [7]: 90%
- % binding [8]: 72%

Compound: CCC(=O)N1CCN(c2ccc(-n3c(=O)ccc4cnc5ccc(-c6cnc7ccccc7c6)cc5c43)cc2C(F)(F)F)CC1
- % of control [9]: 100%

From ChEMBL document CHEMBL5465560, “Selectivity Literature for EUbOPEN Chemogenomic Library” (2024)
